Measured values: patent US12264159B2, “Functionalized heterocycles as antiviral agents” (Enanta Pharmaceuticals, Inc., priority 2018, dated 2025)

What was measured:
HBV in 2.2.15 cells = experiment: 2.2.15 cells: viral product in cell lysates quantified via quantitative real time PCR; format: cell-based, hepatitis B virus (HBV); details: Hepatitis B virus, 120 h, day 5 post treatment, 50% reduction of viral product vs no drug controls, readout (qPCR, HBsAg or HBeAg) not specified for the column
Summary of the method: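 2.2.15 cells (35,000/well, DMEM/F12, 10% FBS, G418) were treated with 5-fold serial compound dilutions, 0.5% DMSO final. After 5 days, lysates were quantified by qPCR, or supernatant HBsAg/HBeAg by ELISA; EC50 is the concentration giving 50% reduction versus no-drug controls.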

[1] = Compound induced cellular toxicity in HepG2 cells, ATPlite 1Step; format: cell-based; details: human, three days exposure, 50% reduction of total ATP vs no drug controls
Procedure: At day 3, post seeding cells are treated with ATPlite 1Step according to the manufacturer's instructions.

Cc1cccc(-c2c(-c3ccc(F)cc3)nn3c2-c2cc(=O)c(C(=O)O)cn2[C@H](C(C)(C)C)C3)c1 [Example 170, (R)-6-(tert-butyl)-2-(4-fluorophenyl)-10-oxo-1-(m-tolyl)-5,6-dihydro-10H-pyrazolo[1,5-a]pyrido[2,1-c]pyrazine-9-carboxylic acid]
EC50 (HBV in 2.2.15 cells): < 0.1 µM
CC50 at 3 days [1]: 10 to 25 µM

COc1cccc(-c2c(C3CC3)nn3c2-c2cc(=O)c(C(=O)O)cn2[C@H](C(C)(C)C)C3)c1 [Example 157, (R)-6-(tert-butyl)-2-cyclopropyl-1-(3-methoxyphenyl)-10-oxo-5,6-dihydro-10H-pyrazolo[1,5-a]pyrido[2,1-c]pyrazine-9-carboxylic acid]
EC50 (HBV in 2.2.15 cells): < 0.1 µM
CC50 at 3 days [1]: > 25 µM

CC(C)(C)[C@@H]1Cn2nc(-c3ccccc3OC3CC3)cc2-c2cc(=O)c(C(=O)O)cn21 [Example 81, (R)-6-(tert-butyl)-2-(2-cyclopropoxyphenyl)-10-oxo-5,6-dihydro-10H-pyrazolo[1,5-a]pyrido[2,2-c]pyrazine-12-carboxylic acid]
EC50 (HBV in 2.2.15 cells): < 0.1 µM
CC50 at 3 days [1]: > 25 µM

CC(C)[C@@H]1Cn2nc(C3CC3)c(-c3cccc(F)c3)c2-c2cc(=O)c(C(=O)O)cn21 [Example 134, (R)-2-cyclopropyl-1-(3-fluorophenyl)-6-isopropyl-10-oxo-5,6-dihydro-10H-pyrazolo[1,5-a]pyrido[2,1-c]pyrazine-9-carboxylic acid]
EC50 (HBV in 2.2.15 cells): < 0.1 µM
CC50 at 3 days [1]: > 25 µM

CC(C)[C@@H]1Cn2nc(-c3ccccc3)c(-c3ccccc3)c2-c2cc(=O)c(C(=O)O)cn21 [Example 179, (R)-6-isopropyl-10-oxo-1,2-diphenyl-5,6-dihydro-10H-pyrazolo[1,5-a]pyrido[2,1-c]pyrazine-9-carboxylic acid]
EC50 (HBV in 2.2.15 cells): < 0.1 µM
CC50 at 3 days [1]: > 25 µM

CC(C)(C)[C@@H]1Cn2ncc(-c3ccco3)c2-c2cc(=O)c(C(=O)O)cn21 [Example 108, (R)-6-(tert-butyl)-1-(furan-2-yl)-10-oxo-5,6-dihydro-10H-pyrazolo[1,5-a]pyrido[2,1-c]pyrazine-9-carboxylic acid]
EC50 (HBV in 2.2.15 cells): < 0.1 µM
CC50 at 3 days [1]: 10 to 25 µM

CC(C)(C)[C@@H]1Cn2ncc(-c3ccccc3)c2-c2cc(=O)c(C(=O)O)cn21 [Example 107, (R)-6-(tert-butyl)-10-oxo-1-phenyl-5,6-dihydro-10H-pyrazolo[1,5-a]pyrido[2,1-c]pyrazine-9-carboxylic acid]
EC50 (HBV in 2.2.15 cells): < 0.1 µM
CC50 at 3 days [1]: < 10 µM

CC(C)COc1ccccc1-c1cc2n(n1)C[C@@H](C(C)(C)C)n1cc(C(=O)O)c(=O)cc1-2 [Example 80, (R)-6-(tert-butyl)-2-(2-isobutoxyphenyl)-10-oxo-5,6-dihydro-10H-pyrazolo[1,5-a]pyrido[2,2-c]pyrazine-12-carboxylic acid]
EC50 (HBV in 2.2.15 cells): < 0.1 µM
CC50 at 3 days [1]: > 25 µM

COc1cccc(-c2cnn3c2-c2cc(=O)c(C(=O)O)cn2[C@H](C(C)(C)C)C3)c1 [Example 113, (R)-6-(tert-butyl)-1-(3-methoxyphenyl)-10-oxo-5,6-dihydro-10H-pyrazolo[1,5-a]pyrido[2,1-c]pyrazine-9-carboxylic acid]
EC50 (HBV in 2.2.15 cells): < 0.1 µM
CC50 at 3 days [1]: > 25 µM

CC(C)(C)[C@@H]1Cn2nc(-c3ccc(F)cc3)c(-c3ccccc3F)c2-c2cc(=O)c(C(=O)O)cn21 [Example 169, (R)-6-(tert-butyl)-1-(2-fluorophenyl)-2-(4-fluorophenyl)-10-oxo-5,6-dihydro-10H-pyrazolo[1,5-a]pyrido[2,1-c]pyrazine-9-carboxylic acid]
EC50 (HBV in 2.2.15 cells): < 0.1 µM
CC50 at 3 days [1]: 10 to 25 µM
